# Source: US8877748B2, “Heterocyclic fused anthraquinone derivatives, manufacturing method and pharmaceutical composition using thereof” (National Defense Medical Center, priority 2012, dated 2014)
# Tests used:
# Format in all cases: cell-based, human
# [1] = test system: HCT-116; assay: NCI one-dose screening, colon cancer HCT-116; details: 10 μM
# [2] = test system: CCRF-CEM; assay: NCI screening platform one-dose single concentration screening, leukemia CCRF-CEM; details: 10 μM
# [3] = test system: HOP-62; assay: NCI one-dose screening, non-small cell lung cancer HOP-62; details: 10 μM
# [4] = test system: LOX IMVI; assay: NCI one-dose screening, melanoma LOX IMVI; details: 10 μM
# [5] = test system: SF-539; assay: NCI one-dose screening, CNS cancer SF-539; details: 10 μM
# [6] = test system: KM12; assay: NCI one-dose screening, colon cancer KM12; details: 10 μM
# [7] = test system: SK-MEL-5; assay: NCI one-dose screening, melanoma SK-MEL-5; details: 10 μM
# [8] = test system: K562cell line; assay: NCI one-dose screening, leukemia K562; details: 10 μM
# [9] = test system: MDA, -MB-435; assay: NCI one-dose screening, breast cancer MDA, -MB-435; details: 10 μM; listed under Melanoma
# [10] = test system: RXF, 393; assay: NCI one-dose screening, renal cancer RXF, 393; details: 10 μM
# [11] = test system: UACC-257; assay: NCI one-dose screening, melanoma UACC-257; details: 10 μM
# [12] = test system: MALME-3M; assay: NCI one-dose screening, melanoma MALME-3M; details: 10 μM
# [13] = test system: COLO 205; assay: NCI one-dose screening, colon cancer COLO 205; details: 10 μM
# [14] = test system: NCI-H23; assay: NCI one-dose screening, non-small cell lung cancer NCI-H23; details: 10 μM
# [15] = test system: SK-MEL-28; assay: NCI one-dose screening, melanoma SK-MEL-28; details: 10 μM
# [16] = test system: M14; assay: NCI one-dose screening, melanoma M14; details: 10 μM
# [17] = test system: SF-268; assay: NCI one-dose screening, CNS cancer SF-268; details: 10 μM
# [18] = test system: NCI-H226; assay: NCI one-dose screening, non-small cell lung cancer NCI-H226; details: 10 μM
# [19] = test system: UACC-62; assay: NCI one-dose screening, melanoma UACC-62; details: 10 μM
# [20] = test system: MOLT-4; assay: NCI one-dose screening, leukemia MOLT-4; details: 10 μM
# [21] = test system: SF-295; assay: NCI one-dose screening, CNS cancer SF-295; details: 10 μM
# [22] = test system: 786-O; assay: NCI one-dose screening, renal cancer 786-O; details: 10 μM
# [23] = test system: CAKI-1; assay: NCI one-dose screening, renal cancer CAKI-1; details: 10 μM
# [24] = test system: PRMI-8226 cell line; assay: NCI one-dose screening, leukemia PRMI-8226; details: 10 μM
# [25] = test system: HCC-2998; assay: NCI one-dose screening, colon cancer HCC-2998; details: 10 μM
# [26] = test system: OVCAR-3; assay: NCI one-dose screening, ovarian cancer OVCAR-3; details: 10 μM
# [27] = test system: TK-10; assay: NCI one-dose screening, renal cancer TK-10; details: 10 μM
# [28] = test system: NCl/ADR-RES; assay: NCI one-dose screening, breast cancer NCl/ADR-RES; details: 10 μM; listed under Ovarian cancer
# [29] = test system: NCI-H522; assay: NCI one-dose screening, non-small cell lung cancer NCI-H522; details: 10 μM
# [30] = test system: OVCAR-5; assay: NCI one-dose screening, ovarian cancer OVCAR-5; details: 10 μM
# [31] = test system: SN12C; assay: NCI one-dose screening, renal cancer SN12C; details: 10 μM
# [32] = test system: OVCAR-4; assay: NCI one-dose screening, ovarian cancer OVCAR-4; details: 10 μM
# [33] = test system: SNB-75; assay: NCI one-dose screening, CNS cancer SNB-75; details: 10 μM
# [34] = test system: PC-3 prostate cancer cell line; assay: SRB assay cell viability, PC-3 prostate cancer cell line; details: Homo sapiens, PC-3 prostate cancer cell line, Table II prints no unit, μM printed, read-out: SRB assay: 50% inhibition of cancer cell proliferation of sample concentration (IC50) of PC-3 prostate cancer cell line
# [35] = test system: HL-60, TB; assay: NCI one-dose screening, leukemia HL-60, TB; details: 10 μM
# [36] = test system: ACHN; assay: NCI one-dose screening, renal cancer ACHN; details: 10 μM
# [37] = test system: OVCAR-8; assay: NCI one-dose screening, ovarian cancer OVCAR-8; details: 10 μM
# [38] = test system: SR; assay: NCI one-dose screening, leukemia SR; details: 10 μM
# [39] = test system: NCI-H460; assay: NCI one-dose screening, non-small cell lung cancer NCI-H460; details: 10 μM
# [40] = test system: U251; assay: NCI one-dose screening, CNS cancer U251; details: 10 μM
# [41] = test system: SK-MEL-2; assay: NCI one-dose screening, melanoma SK-MEL-2; details: 10 μM
# [42] = test system: NCI-H322M; assay: NCI one-dose screening, non-small cell lung cancer NCI-H322M; details: 10 μM; Non-small cell lung cancer
# [43] = test system: HCT-15; assay: NCI one-dose screening, colon cancer HCT-15; details: 10 μM
# [44] = test system: EKVX; assay: NCI one-dose screening, non-small cell lung cancer EKVX; details: 10 μM
# [45] = test system: A549/ATCC; assay: NCI one-dose screening, non-small cell lung cancer A549/ATCC; details: 10 μM
# [46] = test system: IGROV1; assay: NCI one-dose screening, ovarian cancer IGROV1; details: 10 μM
# [47] = test system: HT29; assay: NCI one-dose screening, colon cancer HT29; details: 10 μM
# [48] = test system: SNB-19; assay: NCI one-dose screening, CNS cancer SNB-19; details: 10 μM
smiles,measurement,setting,value
"Cc1cccc(C)c1Sc1cc2c(c3nsnc13)C(=O)c1ccccc1C2=O [C55, 4-(2,6-dimethylphenylthio)anthra[2,1-c] [1,2,5]thiadiazol-6,11-dione]",Growth Percent HCT-116,[1],64.99%
same,Growth Percent CCRF-CEM,[2],34.84%
same,Growth Percent HOP-62,[3],90.01%
same,Growth Percent LOX IMVI,[4],44.61%
same,Growth Percent SF-539,[5],84.51%
same,Growth Percent KM12,[6],95.96%
same,Growth Percent SK-MEL-5,[7],70.23%
same,Growth Percent K562,[8],43.14%
same,Growth Percent MDA-MB-435,[9],96.77%
same,Growth Percent RXF 393,[10],76.16%
same,Growth Percent UACC-257,[11],86.57%
same,Growth Percent MALME-3M,[12],73.72%
same,Growth Percent COLO 205,[13],98.76%
same,Growth Percent NCI-H23,[14],67.37%
same,Growth Percent SK-MEL-28,[15],89.33%
same,Growth Percent M14,[16],121.55%
same,Growth Percent SF-268,[17],79.48%
same,Growth Percent NCI-H226,[18],78.31%
same,Growth Percent UACC-62,[19],91.72%
same,Growth Percent MOLT-4,[20],32.64%
same,Growth Percent SF-295,[21],91.11%
same,Growth Percent 786-0,[22],115.19%
same,Growth Percent CAKI-1,[23],61.03%
same,Growth Percent RPMI-8226,[24],55.63%
same,Growth Percent HCC-2998,[25],100.96%
same,Growth Percent OVCAR-3,[26],1.00%
same,Growth Percent TK-10,[27],119.41%
same,Growth Percent NCI/ADR-RES,[28],59.68%
same,Growth Percent NCI-H522,[29],61.39%
same,Growth Percent OVCAR-5,[30],113.96%
same,Growth Percent SN12C,[31],67.67%
same,Growth Percent OVCAR-4,[32],4.00%
same,Growth Percent SNB-75,[33],69.38%
same,IC50,[34],6.74 µM
same,Growth Percent HL-60(TB),[35],47.83%
same,Growth Percent ACHN,[36],83.18%
same,Growth Percent OVCAR-8,[37],58.98%
same,Growth Percent SR,[38],35.52%
same,Growth Percent NCI-H460,[39],87.37%
same,Growth Percent U251,[40],53.94%
same,Growth Percent SK-MEL-2,[41],67.54%
same,Growth Percent NCI-H322M,[42],83.83%
same,Growth Percent HCT-15,[43],47.54%
same,Growth Percent EKVX,[44],82.44%
same,Growth Percent A549/ATCC,[45],90.16%
same,Growth Percent IGROV1,[46],66.38%
same,Growth Percent HT29,[47],97.73%
same,Growth Percent SNB-19,[48],94.75%
"O=C1c2ccccc2C(=O)c2c1cc(Nc1ccc(Cl)cc1F)c1nsnc21 [C65, 4-(4-chloro-2-fluoro-phenylamino)anthra [2,1-c][1,2,5]thiadiazol-6,11-dione]",Growth Percent HCT-116,[1],52.51%
same,Growth Percent CCRF-CEM,[2],29.84%
same,Growth Percent HOP-62,[3],79.67%
same,Growth Percent LOX IMVI,[4],29.97%
same,Growth Percent SF-539,[5],75.99%
same,Growth Percent KM12,[6],83.42%
same,Growth Percent SK-MEL-5,[7],49.49%
same,Growth Percent K562,[8],35.29%
same,Growth Percent MDA-MB-435,[9],27.37%
same,Growth Percent RXF 393,[10],66.49%
same,Growth Percent UACC-257,[11],50.45%
same,Growth Percent MALME-3M,[12],58.74%
same,Growth Percent COLO 205,[13],90.97%
same,Growth Percent NCI-H23,[14],53.59%
same,Growth Percent SK-MEL-28,[15],87.69%
same,Growth Percent M14,[16],118.36%
same,Growth Percent SF-268,[17],69.25%
same,Growth Percent NCI-H226,[18],74.35%
same,Growth Percent UACC-62,[19],85.80%
same,Growth Percent MOLT-4,[20],20.18%
same,Growth Percent SF-295,[21],86.04%
same,Growth Percent 786-0,[22],114.97%
same,Growth Percent CAKI-1,[23],72.65%
same,Growth Percent RPMI-8226,[24],40.73%
same,Growth Percent HCC-2998,[25],97.85%
same,Growth Percent OVCAR-3,[26],10.25%
same,Growth Percent TK-10,[27],110.93%
same,Growth Percent NCI/ADR-RES,[28],48.31%
same,Growth Percent NCI-H522,[29],47.67%
same,Growth Percent OVCAR-5,[30],114.60%
same,Growth Percent SN12C,[31],86.43%
same,Growth Percent OVCAR-4,[32],−4.36%
same,Growth Percent SNB-75,[33],83.19%
same,IC50,[34],> 15 µM
same,Growth Percent HL-60(TB),[35],8.17%
same,Growth Percent ACHN,[36],74.11%
same,Growth Percent OVCAR-8,[37],36.77%
same,Growth Percent SR,[38],23.58%
same,Growth Percent NCI-H460,[39],81.55%
same,Growth Percent U251,[40],43.08%
same,Growth Percent SK-MEL-2,[41],72.52%
same,Growth Percent NCI-H322M,[42],91.66%
same,Growth Percent HCT-15,[43],45.61%
same,Growth Percent EKVX,[44],80.90%
same,Growth Percent A549/ATCC,[45],69.22%
same,Growth Percent IGROV1,[46],69.50%
same,Growth Percent HT29,[47],98.33%
same,Growth Percent SNB-19,[48],94.57%
